Assay results from US10294202B2, “Pyrrolidinones as herbicides” (FMC Corporation, priority 2013, dated 2019).
Read-outs that look alike come from different tables or passages of the source.

Assays:
[1] = system: velvetleaf; assay: Test A pre-/postemergence herbicide test; format: in vivo, Abutilon theophrasti; details: for Velvetleaf plant response rating: Preemergence, visual rating on 0 to 100 scale (0 no effect, 100 complete control); for pest or weed control at 125 g/ha / pest or weed control at 500 g/ha: Abutilon theophrasti, 240 h, read-out: Plant response rating, Velvetleaf
How it was run: (§1)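 Seeds sown in loam soil/sand blend received a preemergence directed soil spray of test chemical in non-phytotoxic solvent with surfactant; postemergence plants (2–10 cm, one- to two-leaf stage) were sprayed with the same formulation. After about 10 days in greenhouse, injury was rated visually versus untreated controls, 0 (no effect) to 100 (complete control).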

[2] = system: rice; assay: Test C flooded paddy test; format: in vivo, Oryza sativa; details: Flood
How it was run: (§2)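 2-leaf stage; flood 3 cm over soil; compound into paddy water; depth held; greenhouse 13–15 d; visual % control vs untreated (0 = none, 100 = complete); "-" = not tested.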

[3] = system: barnyardgrass; assay: Test C flooded paddy test; format: in vivo, Echinochloa crus-galli; details: Flood
How it was run: as §2

[4] = system: ducksalad; assay: Test C flooded paddy test; format: in vivo, Heteranthera limosa; details: Flood
How it was run: as §2

[5] = system: kochia; assay: Test A pre-/postemergence herbicide test; format: in vivo, Kochia scoparia
How it was run: as §1

[6] = system: galium; assay: Test A postemergence herbicide test; format: in vivo, Galium aparine
How it was run: (§3)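 Young potted plants in a loam–sand mix, one- to two-leaf stage and 2–10 cm tall, receive the test chemical postemergence and stay in a greenhouse for approximately 10 days. Injury is then judged by eye against untreated plants, scored 0 (none) to 100 (complete control).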

[7] = system: blackgrass; assay: Test A postemergence herbicide test; format: in vivo, Alopecurus myosuroides
How it was run: as §3

[8] = Postemergence, 500 g ai/ha, 0 to 100 scale (0 no effect, 100 complete control)
[9] = preemergence, 500 g ai/ha, 0 to 100 scale
[10] = Postemergence, 125 g ai/ha, 0 to 100 scale, 0 no effect, 100 complete control
[11] = 125 g ai/ha, visual rating, 0 to 100 scale, 0 no effect, 100 complete control, approximately 10 days, preemergence
[12] = 125 g ai/ha, 0 to 100 scale, 0 no effect, 100 complete control
[13] = 62 g ai/ha, scale of 0 to 100 where 0 is no effect and 100 is complete control, 13 to 15 days
[14] = 125 g ai/ha, scale of 0 to 100 where 0 is no effect and 100 is complete control, 13 to 15 days
[15] = 500 g ai/ha, 0 to 100 scale (0 no effect, 100 complete control)
[16] = Postemergence, 125 g ai/ha, 0 to 100 scale, 0 is no effect, 100 is complete control
[17] = Preemergence, 125 g ai/ha, 0 to 100 scale where 0 is no effect and 100 is complete control
[18] = preemergence, 500 g ai/ha, 0 to 100 scale, 0 is no effect and 100 is complete control
[19] = 125 g ai/ha, 0 to 100 scale, 0 is no effect, 100 is complete control
[20] = Postemergence, 125 g ai/ha, visual rating on 0 to 100 scale (0 no effect, 100 complete control), approx. 10 days
[21] = Preemergence, 500 g ai/ha, visual rating on 0 to 100 scale (0 no effect, 100 complete control)
[22] = 125 g ai/ha, visual rating on 0 to 100 scale (0 no effect, 100 complete control), approx. 10 days
[23] = 31 g ai/ha, scale of 0 to 100 where 0 is no effect and 100 is complete control, 13 to 15 days
[24] = post-emergence, Postemergence, 125 g ai/ha, 0 to 100 scale, 0 no effect, 100 complete control
[25] = post-emergence, Postemergence, 500 g ai/ha, 0 to 100 scale (0 no effect, 100 complete control)
[26] = pre-emergence, preemergence, 500 g ai/ha, 0 to 100 scale

Compound: O=C1NCC(c2ccc(F)c(F)c2)C1C(=O)Nc1ccccc1C(F)(F)F (racemic) [Compound 6]
- Plant response rating, Velvetleaf [1, 8]: 10
- Velvetleaf plant response rating ([1]; 125 g ai/ha): 0
- Plant response rating, Velvetleaf [1, 9]: 0

Compound: O=C1NCC(c2ccc(F)c(C(F)(F)F)c2)C1C(=O)Nc1cccc(F)c1F (racemic) [Compound 77]
- Plant response rating, Rice ([2]; 250 g ai/ha, scale 0 to 100): 0
- Plant response rating, Rice ([2]; 500 g ai/ha, scale 0 to 100): 0
- Plant response rating, Rice ([2]; 1000 g ai/ha, scale 0 to 100): 20
- Plant response rating, Rice ([2]; 2000 g ai/ha, scale 0 to 100): 60
- Plant response rating, Barnyardgrass ([3]; 250 g ai/ha, scale 0 to 100): 20
- Plant response rating, Barnyardgrass ([3]; 500 g ai/ha, scale 0 to 100): 30
- Plant response rating, Barnyardgrass ([3]; 1000 g ai/ha, scale 0 to 100): 40
- Plant response rating, Barnyardgrass ([3]; 2000 g ai/ha, scale 0 to 100): 70
- Plant response rating, Ducksalad ([4]; 250 g ai/ha, scale 0 to 100): 95
- Plant response rating, Ducksalad ([4]; 500 g ai/ha, scale 0 to 100): 100
- Plant response rating, Ducksalad ([4]; 1000 g ai/ha, scale 0 to 100): 100
- Plant response rating, Ducksalad ([4]; 2000 g ai/ha, scale 0 to 100): 100
- Plant response rating, Velvetleaf [1, 10]: 20
- Plant response rating, Velvetleaf [1, 8]: 40
- Velvetleaf plant response rating ([1]; 125 g ai/ha): 0
- Plant response rating, Velvetleaf [1, 9]: 0

Compound: O=C1NCC(c2ccc(F)cc2)C1C(=O)Nc1ccc(F)c(F)c1F (racemic) [Compound 120]
- Plant response rating, Kochia [5, 11]: 60
- Plant response rating, Kochia [5, 10]: 60
- Kochia plant response rating (0 to 100 scale, 0 is no effect, 100 is complete control) ([5]; Postemergence, 500 g ai/ha): 70
- Plant response rating, Kochia [5, 9]: 80
- Plant response rating, Galium [6, 12]: 50
- Galium plant response rating (0 to 100 scale, 0 is no effect, 100 is complete control) ([6]; 500 g ai/ha): 60
- Plant response rating, Rice [2, 13]: 0
- Plant response rating, Rice [2, 14]: 0
- Plant response rating, Rice ([2]; 250 g ai/ha, scale 0 to 100): 0
- Plant response rating, Rice ([2]; 500 g ai/ha, scale 0 to 100): 0
- Plant response rating, Barnyardgrass [3, 13]: 40
- Plant response rating, Barnyardgrass [3, 14]: 50
- Plant response rating, Barnyardgrass ([3]; 250 g ai/ha, scale 0 to 100): 60
- Plant response rating, Barnyardgrass ([3]; 500 g ai/ha, scale 0 to 100): 75
- Plant response rating, Ducksalad [4, 13]: 100
- Plant response rating, Ducksalad [4, 14]: 100
- Plant response rating, Ducksalad ([4]; 250 g ai/ha, scale 0 to 100): 100
- Plant response rating, Ducksalad ([4]; 500 g ai/ha, scale 0 to 100): 100
- Plant response rating, Blackgrass [7, 12]: 40
- Plant response rating, Blackgrass [7, 15]: 50

Compound: O=C1NCC(c2cc(F)cc(F)c2)C1C(=O)Nc1ccccc1Cl (racemic) [Compound 280]
- Plant response rating, Kochia [5, 16]: 0
- Plant response rating, Kochia [5, 8]: 0
- Plant response rating, Kochia [5, 17]: 0
- Plant response rating, Kochia [5, 18]: 0
- Plant response rating, Galium [6, 19]: 0
- Plant response rating, Galium [6, 15]: 0
- Plant response rating, Blackgrass [7, 19]: 0
- Plant response rating, Blackgrass [7, 15]: 0

Compound: O=C1NCC(c2ccc(OC(F)F)cc2)C1C(=O)Nc1cccc(F)c1F (racemic) [Compound 350]
- Plant response rating, Kochia [5, 20]: 70
- Plant response rating, Kochia [5, 17]: 80
- Kochia plant response rating [5, 21]: 80
- Plant response rating, Galium [6, 22]: 60
- Plant response rating, Blackgrass [7, 22]: 50
- Plant response rating, Blackgrass [7, 15]: 50

Compound: O=C1NCC(Br)(c2ccccc2)C1C(=O)Nc1ccccc1F (centres unmarked) [Compound 92, 4-bromo-N-(2-fluorophenyl)-2-oxo-4-phenyl-3-pyrrolidinecarboxamide]
- Plant response rating, Rice [2, 23]: 10
- Plant response rating, Rice [2, 13]: 10
- Plant response rating, Rice [2, 14]: 20
- Plant response rating, Rice ([2]; 250 g ai/ha, scale 0 to 100): 20
- Plant response rating, Barnyardgrass [3, 23]: 10
- Plant response rating, Barnyardgrass [3, 13]: 10
- Plant response rating, Barnyardgrass [3, 14]: 10
- Plant response rating, Barnyardgrass ([3]; 250 g ai/ha, scale 0 to 100): 10
- Plant response rating, Ducksalad [4, 23]: 0
- Plant response rating, Ducksalad [4, 13]: 20
- Plant response rating, Ducksalad [4, 14]: 20
- Plant response rating, Ducksalad ([4]; 250 g ai/ha, scale 0 to 100): 70
- pest or weed control at 125 g/ha [1, 24]: 0%
- pest or weed control at 500 g/ha [1, 25]: 0%
- pest or weed control at 500 g/ha [1, 26]: 0%
- Velvetleaf plant response rating ([1]; 125 g ai/ha): 0

Compound: O=C1NCC(c2ccccc2)C1(Br)C(=O)Nc1ccccc1F (centres unmarked) [Compound 93, 3-bromo-N-(2-fluorophenyl)-2-oxo-4-phenyl-3-pyrrolidinecarboxamide]
- Plant response rating, Rice [2, 23]: 10
- Plant response rating, Rice [2, 13]: 20
- Plant response rating, Rice [2, 14]: 20
- Plant response rating, Rice ([2]; 250 g ai/ha, scale 0 to 100): 30
- Plant response rating, Barnyardgrass [3, 23]: 0
- Plant response rating, Barnyardgrass [3, 13]: 0
- Plant response rating, Barnyardgrass [3, 14]: 0
- Plant response rating, Barnyardgrass ([3]; 250 g ai/ha, scale 0 to 100): 40
- Plant response rating, Ducksalad [4, 23]: 0
- Plant response rating, Ducksalad [4, 13]: 0
- Plant response rating, Ducksalad [4, 14]: 0
- Plant response rating, Ducksalad ([4]; 250 g ai/ha, scale 0 to 100): 85
- pest or weed control at 125 g/ha [1, 24]: 0%
- pest or weed control at 500 g/ha [1, 25]: 0%
- pest or weed control at 500 g/ha [1, 26]: 0%
- Velvetleaf plant response rating ([1]; 125 g ai/ha): 0

Compound: O=C1NCC(c2ccc(Cl)cc2)C1C(=O)Nc1cccc(F)c1F (centres unmarked) [Compound 218]
- Plant response rating, Kochia [5, 11]: 30
- Plant response rating, Kochia [5, 16]: 50
- Kochia plant response rating (0 to 100 scale, 0 is no effect, 100 is complete control) ([5]; Postemergence, 500 g ai/ha): 60
- Plant response rating, Kochia [5, 18]: 70
- Plant response rating, Galium [6, 19]: 40
- Galium plant response rating (0 to 100 scale, 0 is no effect, 100 is complete control) ([6]; 500 g ai/ha): 60
- Plant response rating, Blackgrass [7, 19]: 20
- Blackgrass plant response rating (0 to 100 scale, 0 is no effect, 100 is complete control) ([7]; 500 g ai/ha): 40

Compound: O=C1NCC(c2ccc(C(F)(F)F)cc2)C1C(=O)Nc1ccccc1F (centres unmarked) [Compound 231]
- Plant response rating, Kochia [5, 11]: 70
- Plant response rating, Kochia [5, 16]: 70
- Kochia plant response rating (0 to 100 scale, 0 is no effect, 100 is complete control) ([5]; Postemergence, 500 g ai/ha): 90
- Plant response rating, Kochia [5, 18]: 90
- Plant response rating, Galium [6, 19]: 40
- Galium plant response rating (0 to 100 scale, 0 is no effect, 100 is complete control) ([6]; 500 g ai/ha): 50
- Plant response rating, Blackgrass [7, 19]: 40
- Blackgrass plant response rating (0 to 100 scale, 0 is no effect, 100 is complete control) ([7]; 500 g ai/ha): 60

Compound: CN1CC(c2cccc(C(F)(F)F)c2)C(C(=O)Nc2cccc(F)c2F)C1=O (centres unmarked) [Compound 305]
- Plant response rating, Kochia [5, 20]: 30
- Plant response rating, Kochia [5, 8]: 70
- Plant response rating, Kochia [5, 17]: 70
- Kochia plant response rating [5, 21]: 70
- Plant response rating, Galium [6, 22]: 50
- Plant response rating, Galium [6, 15]: 70
- Plant response rating, Blackgrass [7, 22]: 60
- Plant response rating, Blackgrass [7, 15]: 70

Compound: CN1CC(c2ccc(C(F)(F)F)cc2)C(C(=O)Nc2cccc(F)c2F)C1=O (centres unmarked) [Compound 306]
- Plant response rating, Kochia [5, 20]: 30
- Plant response rating, Kochia [5, 8]: 70
- Plant response rating, Kochia [5, 17]: 70
- Kochia plant response rating [5, 21]: 80
- Plant response rating, Galium [6, 22]: 60
- Plant response rating, Galium [6, 15]: 70
- Plant response rating, Blackgrass [7, 22]: 50
- Plant response rating, Blackgrass [7, 15]: 60

Compound: CC(C)c1cccc(C2CNC(=O)C2C(=O)Nc2cccc(F)c2F)c1 (centres unmarked) [Compound 319]
- Plant response rating, Kochia [5, 20]: 30
- Plant response rating, Kochia [5, 8]: 50
- Plant response rating, Kochia [5, 17]: 60
- Kochia plant response rating [5, 21]: 80
- Plant response rating, Galium [6, 22]: 30
- Plant response rating, Galium [6, 15]: 50
- Plant response rating, Blackgrass [7, 22]: 40
- Plant response rating, Blackgrass [7, 15]: 50

Compound: O=C1NCC(c2cccc(C(F)(F)F)c2)C1C(=O)Nc1ccc(F)c(F)c1F (centres unmarked) [Compound 345]
- Plant response rating, Kochia [5, 20]: 50
- Plant response rating, Kochia [5, 17]: 10
- Kochia plant response rating [5, 21]: 80
- Plant response rating, Galium [6, 22]: 60
- Plant response rating, Blackgrass [7, 22]: 50
- Plant response rating, Blackgrass [7, 15]: 60
